# Test results as given in patent publication US20230303497A1, “BENZYLAMINE OR BENZYL ALCOHOL DERIVATIVE AND USES THEREOF” (CHENGDU HYPERWAY PHARMACEUTICALS CO., LTD, priority 2020, published 2023).
# Target: human NaV1.8 ion channel (Homo sapiens (Human), UniProt Q9Y5Y9)
# Assay: Compound inhibition activity on human NaV1.8 ion channel in HEK293 cells (whole-cell patch clamp)
# Format: cell-based
# Settings: 100 nm concentration; HEK293 cells, resting protocol
# Procedure: Test Case 1: Compound Inhibition Activity on Human NaV1.8 Ion Channel in HEK293 Cells
# The final concentrations of the test compounds are prepared on the same day and then dissolved in extracellular solution. […] The intracellular solution (mM) contains: Aspartic acid, 140; MgCl2, 2; EGTA 11; HEPES, 10; pH 7.2 (CsOH titration). All test solutions contain 1 μM TTX.
# The test solution are stored at a concentration of 3 mM in dimethyl sulfoxide (DMSO). The solutions will be dissolved in extracellular solution on the day of testing and prepared to the required concentration.
# All experiments were performed at room temperature. Each cell itself is taken as the corresponding control.
# At least one cell is tested per concentration.
# HEK293 cell steady expressing NaV1.8 ion channel.
# The intracellular fluid (mM) contains: Aspartic acid, 140; MgCl2, 2; EGTA 11; HEPES, 10; pH 7.2 (CsOH titration). […] Electrodes are drawn with PC-10 (Narishige, Japan). Recording is performed with whole-cell diaphragm clamp.
# The cells are clamped at −80 mV and then depolarized to 10 mV with a sustained 10 ms square wave to give a Nav1.8 current. This procedure is repeated every 5 seconds.
# Chain of human NaV1.8 ion channel (Q9Y5Y9 whole entry): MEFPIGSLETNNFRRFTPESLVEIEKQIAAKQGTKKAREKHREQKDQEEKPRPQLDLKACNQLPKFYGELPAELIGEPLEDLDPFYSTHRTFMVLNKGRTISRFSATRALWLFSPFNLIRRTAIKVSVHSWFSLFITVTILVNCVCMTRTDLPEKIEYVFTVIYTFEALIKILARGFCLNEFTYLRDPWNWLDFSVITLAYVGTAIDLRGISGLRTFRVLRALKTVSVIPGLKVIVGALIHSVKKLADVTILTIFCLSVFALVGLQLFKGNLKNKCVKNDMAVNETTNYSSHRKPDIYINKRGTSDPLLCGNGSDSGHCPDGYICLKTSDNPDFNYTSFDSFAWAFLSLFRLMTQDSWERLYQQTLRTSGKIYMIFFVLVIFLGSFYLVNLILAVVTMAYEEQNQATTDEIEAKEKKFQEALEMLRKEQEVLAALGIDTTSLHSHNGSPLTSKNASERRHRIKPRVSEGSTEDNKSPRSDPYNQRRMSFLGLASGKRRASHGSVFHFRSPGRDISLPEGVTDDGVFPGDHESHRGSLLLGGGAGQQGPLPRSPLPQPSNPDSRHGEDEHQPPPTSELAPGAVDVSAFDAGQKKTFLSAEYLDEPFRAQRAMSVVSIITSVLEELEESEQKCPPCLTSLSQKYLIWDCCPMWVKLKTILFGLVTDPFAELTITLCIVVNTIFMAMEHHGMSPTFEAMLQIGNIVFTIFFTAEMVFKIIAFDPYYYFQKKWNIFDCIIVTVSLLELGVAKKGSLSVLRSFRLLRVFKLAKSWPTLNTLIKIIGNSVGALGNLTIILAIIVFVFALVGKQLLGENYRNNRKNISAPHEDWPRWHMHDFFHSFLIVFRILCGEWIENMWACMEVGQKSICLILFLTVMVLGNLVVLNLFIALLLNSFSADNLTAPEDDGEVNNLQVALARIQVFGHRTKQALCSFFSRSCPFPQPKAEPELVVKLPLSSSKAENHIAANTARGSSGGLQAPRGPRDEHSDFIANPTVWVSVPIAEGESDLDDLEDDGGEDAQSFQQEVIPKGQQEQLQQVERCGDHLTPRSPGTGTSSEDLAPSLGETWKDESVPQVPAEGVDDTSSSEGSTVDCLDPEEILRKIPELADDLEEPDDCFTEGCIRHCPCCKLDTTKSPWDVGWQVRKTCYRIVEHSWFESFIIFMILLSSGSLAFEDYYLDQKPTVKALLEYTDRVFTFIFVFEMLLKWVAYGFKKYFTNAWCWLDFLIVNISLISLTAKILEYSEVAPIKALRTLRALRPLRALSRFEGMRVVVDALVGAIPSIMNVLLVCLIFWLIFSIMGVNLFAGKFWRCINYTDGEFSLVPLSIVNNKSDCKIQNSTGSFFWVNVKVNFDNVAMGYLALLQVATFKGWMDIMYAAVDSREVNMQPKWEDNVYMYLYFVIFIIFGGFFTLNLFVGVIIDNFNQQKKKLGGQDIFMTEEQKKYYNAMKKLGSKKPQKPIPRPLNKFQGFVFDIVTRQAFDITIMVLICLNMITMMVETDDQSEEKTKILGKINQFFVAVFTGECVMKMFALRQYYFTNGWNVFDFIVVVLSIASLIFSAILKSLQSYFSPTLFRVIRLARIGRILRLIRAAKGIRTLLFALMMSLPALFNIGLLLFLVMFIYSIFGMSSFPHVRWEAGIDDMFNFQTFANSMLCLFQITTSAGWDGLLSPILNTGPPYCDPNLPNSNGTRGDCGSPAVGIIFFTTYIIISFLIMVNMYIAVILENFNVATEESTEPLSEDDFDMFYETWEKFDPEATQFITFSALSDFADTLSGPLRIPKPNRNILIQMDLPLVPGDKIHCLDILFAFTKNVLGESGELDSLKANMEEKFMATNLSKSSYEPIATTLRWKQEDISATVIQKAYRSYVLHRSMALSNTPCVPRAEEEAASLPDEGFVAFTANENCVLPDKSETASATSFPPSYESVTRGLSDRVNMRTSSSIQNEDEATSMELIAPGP
row,SMILES,Inhibition ratio of Nav1.8 (Activity of inhibition)
1,"Cc1cc(F)ccc1Oc1ccc(C(F)(F)F)cc1C(=O)Nc1ccc(F)c(C2CCCN2)c1 (stereo not drawn) [Example 15, 2-(4-fluoro-2-methylphenoxy)-N-(4-fluoro-3-(pyrrolidin-2-yl)phenyl)-5-(trifluoromethyl) benzamide]",C (50 >C >= 20)
2,"Cc1cc(F)ccc1Oc1ccc(C(F)(F)F)cc1C(=O)Nc1ccc(F)c(C2CCC(C(N)=O)N2)c1 (stereo not drawn) [Example 16, 5-(2-fluoro-5-(2-(4-fluoro-2-methylphenoxy)-5-(trifluoromethyl)benzamido)phenyl) pyrrolidine-2-carboxacylamino]",D (D < 20)

# Same assay, conditions: 100 nm concentration; HEK293 cells, resting protocol; read-out: Inhibition ratio of Nav1.8 (Activity of inhibition)
row,inhibition at 0.1 µM [%],SMILES
1,> 80,"Cc1cc(F)ccc1Oc1cc(C2CC2)c(C(F)(F)F)cc1C(=O)Nc1ccc(F)c(C(N)C(F)CO)c1 (stereo not drawn) [Example 22, N-(3-(1-Amino-2-fluoro-3-hydroxypropyl)-4-fluorophenyl)-4-cyclopropyl-2-(4-fluoro-2-methylphenoxy)-5-(trifluoromethyl) benzamide]"
2,> 80,"Cc1cc(F)ccc1Oc1cc(C2CC2)c(C(F)(F)F)cc1C(=O)Nc1ccc(F)c(C(N)CO)c1 (stereo not drawn) [Example 11, N-(3-(1-Amino-2-hydroxyethyl)-4-fluorophenyl)-4-cyclopropyl-2-(4-fluoro-2-methylphenoxy)-5-(trifluoromethyl) benzamide]"
3,50 to 80,"Cc1cc(F)ccc1Oc1cc(C2CC2)c(C(F)(F)F)cc1C(=O)Nc1ccc(F)c(C(C)CN)c1 (stereo not drawn) [Example 30, N-(3-(1-aminopropyl-2-yl)-4-fluorophenyl)-4-cyclopropyl-2-(4-fluoro-2-methylphenoxy)-5-(trifluoromethyl) benzamide]"
4,50 to 80,"Cc1cc(F)ccc1Oc1cc(C2CC2)c(C(F)(F)F)cc1C(=O)Nc1ccc(F)c(C(N)CC(C)O)c1 (stereo not drawn) [Example 20, N-(3-(1-Amino-3-hydroxybutyl)-4-fluorophenyl)-4-cyclopropyl-2-(4-fluoro-2-methylphenoxy)-5-(trifluoromethyl) benzamide]"

# More lines, now with the values behind:
row,SMILES,inhibition at 0.1 µM [%]
1,Cc1cc(F)ccc1Oc1cc(C(F)(F)F)ccc1C(=O)Nc1ccc(F)c(C(N)C(N)=O)c1 (stereo not drawn) [Example 41],> 80
2,"Cc1cc(F)ccc1Oc1ccc(C(F)(F)F)cc1C(=O)Nc1ccc(F)c(C2NCCNC2=O)c1 (stereo not drawn) [Example 18, 2-(4-Fluoro-2-methylphenoxy)-N-(4-fluoro-3-(3-oxopiperazin-2-yl)phenyl)-5-(trifluoromethyl) benzamide]",< 20
3,"Cc1cc(F)ccc1Oc1ccc(C(F)(F)F)cc1C(=O)Nc1ccc(F)c(C(C)C(N)=O)c1 (stereo not drawn) [Example 27, N-(3-(1-Amino-1-oxopropan-2-yl)-4-fluorophenyl)-2-(4-fluoro-2-methylphenoxy)-5-(trifluoromethyl) benzamide]",> 80
4,"Cc1cc(F)ccc1Oc1ccc(C(F)(F)F)cc1C(=O)Nc1ccc(F)c(CN)c1 [Example 12, N-(3-(Aminomethyl)-4-fluorophenyl)-2-(4-fluoro-2-methylphenoxy)-5-(trifluoromethyl) benzamide]",50 to 80
5,Cc1cc(F)ccc1Oc1ccc(C(F)(F)F)cc1C(=O)Nc1ccnc(CN)c1 [Example 40],50 to 80

# Same assay, conditions: 100 nm concentration; HEK293 cells, resting protocol; read-out: Inhibition ratio of compounds against Nav1.8 (Activity of inhibition)
row,inhibition at 0.1 µM [%],SMILES
1,50 to 80,Cc1cc(F)ccc1Oc1cc(C2CC2)c(C(F)(F)F)cc1C(=O)Nc1ccc(F)c(C(CCO)N2CCCC2)c1 (stereo not drawn) [Example 72]
2,> 80,"Cc1cc(F)ccc1Oc1cc(C2CC2)c(C(F)(F)F)cc1C(=O)Nc1ccc(F)c(C(C)CC(N)=O)c1 (stereo not drawn) [Example 48, N-(3-(4-Amino-4-oxobutan-2-yl)-4-fluorophenyl)-4-cyclopropyl-2-(4-fluoro-2-methylphenoxy)-5-(trifluoromethyl) benzamide]"
3,50 to 80,"Cc1cc(F)ccc1Oc1cc(C2CC2)c(C(F)(F)F)cc1C(=O)Nc1ccc(F)c(C(F)CN)c1 (stereo not drawn) [Example 47, N-(3-(2-Amino-1-fluoroethyl)-4-fluorophenyl)-4-cyclopropyl-2-(4-fluoro-2-methylphenoxy)-5-(trifluoromethyl) benzamide]"
4,> 80,"Cc1cc(F)ccc1Oc1cc(C2CC2)c(C(F)(F)F)cc1C(=O)Nc1ccc(F)c(C(N)CC(C)N)c1 (stereo not drawn) [Example 46, 4-Cyclopropyl-N-(3-(1,3-diaminobutyl)-4-fluorophenyl)-2-(4-fluoro-2-methylphenoxy)-5-(trifluoromethyl) benzamide]"
5,> 80,Cc1cc(F)ccc1Oc1cc(C2CC2)c(C(F)(F)F)cc1C(=O)Nc1ccc(F)c(C(N)CCNC(C)(C)C)c1 (stereo not drawn) [Example 66]
6,50 to 80,"Cc1cc(F)ccc1Oc1cc(C2CC2)c(C(F)(F)F)cc1C(=O)Nc1ccc(F)c(O)c1 [Example 56, 4-cyclopropyl-2-(4-fluoro-2-methylphenoxy)-N-(4-fluoro-3-hydroxyphenyl)-5-(trifluoromethyl) benzamide]"

# The remaining lines, values behind:
row,SMILES,inhibition at 0.1 µM [%]
1,"Cc1cc(F)ccc1Oc1cc(C2CC2)c(C(F)(F)F)cc1C(=O)Nc1ccc(F)c(OCC(O)C(F)(F)F)c1 (stereo not drawn) [Example 60, 4-cyclopropyl-2-(4-fluoro-2-methylphenoxy)-N-(4-fluoro-3-(3,3,3-trifluoro-2-hydroxypropoxy)phenyl)-5-(trifluoromethyl) benzamide]",< 20
2,Cc1cc(F)ccc1Oc1cc(C2CC2)c(C(F)(F)F)cc1C(=O)Nc1ccc(F)c(C2CCNC(=O)CN2)c1 (stereo not drawn) [Example 50],20 to 50
3,"Cc1cc(F)ccc1Oc1cc(C2CC2)c(C(F)(F)F)cc1C(=O)Nc1ccc(F)c(C(C)C(O)CNC(C)(C)C)c1 (stereo not drawn) [Example 55, N-(3-(4-(tert-butylamino)-3-hydroxybutan-2-yl)-4-fluorophenyl)-4-cyclopropyl-2-(4-fluoro-2-methylphenoxy)-5-(trifluoromethyl) benzamide]",> 80
4,Cc1cc(F)ccc1Oc1cc(C2CC2)c(C(F)(F)F)cc1C(=O)Nc1ccc(F)c(OC2CC(O)C2)c1 (stereo not drawn) [Example 71],50 to 80
5,Cc1cc(F)ccc1Oc1cc(C2CC2)c(C(F)(F)F)cc1C(=O)Nc1ccnc(C(C)(C)O)c1 [Example 70],20 to 50
6,Cc1cc(F)ccc1Oc1cc(C2CC2)c(C(F)(F)F)cc1C(=O)Nc1ccc(F)c(OCC2CNCCO2)c1 (stereo not drawn) [Example 80],50 to 80
7,COc1cc(F)ccc1Oc1cc(C(F)(F)F)c(Cl)cc1C(=O)Nc1ccnc(OC[C@H](O)CO)c1 [Example 120],> 80
8,Cc1cc(F)ccc1Oc1cc(C(F)(F)F)c(Cl)cc1C(=O)Nc1cnnc(OCC(O)CO)c1 (stereo not drawn) [Example 101],50 to 80
9,Cc1cc(F)ccc1Oc1cc(C(F)(F)F)ccc1C(=O)Nc1ccc(F)c(OCC(O)CN)c1 (stereo not drawn) [Example 110],50 to 80
10,Cc1cc(F)ccc1Oc1ccc(C(F)(F)F)cc1C(=O)Nc1ccnc(OC[C@H](O)CO)c1 [Example 122],50 to 80
11,Cc1cc(F)ccc1Oc1cc(C2CC2)c(C(F)(F)F)cc1C(=O)Nc1ccnc(OC[C@@H](O)CO)c1 [Example 105],50 to 80
12,Cc1cc(F)ccc1Oc1cc(C2CC2)c(C(F)(F)F)cc1C(=O)Nc1ccc(F)c(OCC(O)CNc2nccs2)c1 (stereo not drawn) [Example 98],> 80

# Same assay, conditions: HEK293, read-out: Inhibition ratio of Nav1.8 (Activity of inhibition)
row,SMILES,inhibition at 0.1 µM [%]
1,"Cc1cc(F)ccc1Oc1ccc(C(F)(F)F)cc1C(=O)Nc1ccc(F)c(C(N)C(C)C(N)=O)c1 (stereo not drawn) [Example 4, N-(3-(1,3-Diamino-2-methyl-3-oxopropyl)-4-fluorophenyl)-2-(4-fluoro-2-methylphenoxy)-5-(trifluoromethyl) benzamide]",50 to 80
